Data as given in patent US7659404B2, “Broad spectrum 2-(substituted-amino)-benzothiazole sulfonamide HIV protease inhibitors” (Tibotec Pharmaceuticals Ltd., priority 2001, dated 2010).

Tests used:
virus strain F (R13025) = assay: microbe, parasite or virus in culture; assay type: cell-based, HIV; settings: for fold resistance (FR), strain F: FR=EC50(mutant strain)/EC50(HIV-1 strain LAI)
How it was run: (§1)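 Activity against mutation-bearing clinical isolates is given as fold resistance, the ratio of mutant to HIV-1 LAI EC50. EC50 and EC90 reflect 50% and 90% protection of infected MT4 cells over a five-day culture. Cell survival was quantified by MTT formazan absorbance at 540 nm.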

virus strain S (R13080) = assay: microbe, parasite or virus in culture; assay type: cell-based, HIV; settings: for fold resistance (FR), strain S: FR=EC50(mutant strain)/EC50(HIV-1 strain LAI)
How it was run: as §1

[1] = test system: clinically isolated HIV strain H; assay type: cell-based; settings: FR=EC50(mutant strain)/EC50(HIV-1 strain LAI)
Experimental: (§2) HIV- or mock-infected MT4 cells were incubated for five days in the presence of various concentrations of the inhibitor. […] Cell viability is measured by measuring the concentration of MTT, a yellow, water soluble tetrazolium dye that is converted to a purple, water insoluble formazan in the mitochondria of living cells only. Upon solubilization of the resulting formazan crystals with isopropanol, the absorbance of the solution is monitored at 540 nm. The values correlate directly to the number of living cells remaining in the culture at the completion of the five day incubation. The inhibitory activity of the compound was monitored on the virus-infected cells and was expressed as EC50 and EC90. These values represent the amount of the compound required to protect 50% and 90%, respectively, of the cells from the cytopathogenic effect of the virus. The toxicity of the compound was measured on the mock-infected cells and was expressed as CC50, which represents the concentration of compound required to inhibit the growth of the cells by 50%. The selectivity index (SI) (ratio CC50/EC50) is an indication of the selectivity of the anti-HIV activity of the inhibitor.
(§3) Because of the increasing emergence of drug resistant HIV strains, the present compounds were tested for their potency against clinically isolated HIV strains harboring several mutations.
(§4) As a measure of the broad spectrum activity of the present compounds, the fold resistance (FR) defined as FR=EC50(mutant strain)/EC50(HIV-1 strain LAI).

[2] = test system: clinically isolated HIV strain I; assay type: cell-based; settings: FR=EC50(mutant strain)/EC50(HIV-1 strain LAI)
Experimental: as §2, §3, §4

[3] = test system: clinically isolated HIV strain J; assay type: cell-based; settings: FR=EC50(mutant strain)/EC50(HIV-1 strain LAI)
Experimental: as §2, §3, §4

[4] = test system: clinically isolated HIV strain O; assay type: cell-based; settings: FR=EC50(mutant strain)/EC50(HIV-1 strain LAI)
Experimental: as §2, §3, §4

[5] = test system: clinically isolated HIV strain T; assay type: cell-based; settings: FR=EC50(mutant strain)/EC50(HIV-1 strain LAI)
Experimental: as §2, §3, §4

wild type virus (IIIB) = assay: HIV-AVE-MT4-MTT cellular assay, wild type virus (IIIB); assay type: cell-based; settings: Human immunodeficiency virus 1, IIIB, MT4, wild type virus (IIIB), MT4 cells, MTT; read-out: HIV-AVE-MT4-MTT-IIIB-2-002 pEC50 (converted)
How it was run: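 MT4 cells, HIV- or mock-infected, exposed to inhibitor dilutions for five days. Viability read by MTT reduction to formazan, absorbance at 540 nm. EC50/EC90 give protection from viral cytopathic effect; CC50 comes from mock-infected cells.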

SMILES	fold resistance (FR), strain F (virus strain F (R13025))	fold resistance (FR), strain S (virus strain S (R13080))	fold resistance (FR), strain H [1]	fold resistance (FR), strain I [2]	fold resistance (FR), strain J [3]	fold resistance (FR), strain O [4]	fold resistance (FR), strain T [5]	EC50 (wild type virus (IIIB)) [nM]	EC50 (virus strain F (R13025); Human immunodeficiency virus 1, MT4, read-out: HIV-AVE-MT4-MTT-R13025-2-002 pEC50, virus strain F (R13025), MT4 cells, MTT (converted)) [nM]	EC50 (virus strain S (R13080); Human immunodeficiency virus 1, MT4, read-out: HIV-AVE-MT4-MTT-R13080-2-002 pEC50, virus strain S (R13080), MT4 cells, MTT (converted)) [nM]
CC(C)CN(C[C@@H](O)[C@H](Cc1ccccc1)NC(=O)OCc1cccnc1)S(=O)(=O)c1ccc2nc(NCCN3CCCC3)sc2c1 [Compound 41]	44.4	37.6	2.3	2.5	5.6	2.0	252.5			
CC(=O)Nc1nc2ccc(S(=O)(=O)N(CC(C)C)C[C@@H](O)[C@H](Cc3ccccc3)NC(=O)Cc3cc(C)no3)cc2s1 [Compound 84]	54.3	195.4	11.7	13.0	19.6	6.1	195.4			
Cc1c(N)cccc1C(=O)N[C@@H](Cc1ccccc1)[C@H](O)CN(CC(C)C)S(=O)(=O)c1ccc2nc(NC(=O)CN3CCCC3)sc2c1 [Compound 62]	14.5	16.1	3.2	2.8	2.4	2.7	277.9			
CC(=O)Nc1nc2ccc(S(=O)(=O)N(CC(C)C)C[C@@H](O)[C@H](Cc3ccccc3)NC(=O)c3cc(N)ccc3C)cc2s1 [Compound 73]	43.1	966.6	9.8	12.1	14.1	20.7	966.6			
Cc1c(N)cccc1C(=O)N[C@@H](Cc1ccccc1)[C@H](O)CN(CC(C)C)S(=O)(=O)c1ccc2nc(NCCCN(C)C)sc2c1 [Compound 54]	3.6	1.8	0.6	0.9	0.4	0.4	1.4			
CC(C)CN(C[C@@H](O)[C@H](Cc1ccccc1)NC(=O)OCc1cccnc1)S(=O)(=O)c1ccc2nc(NC(=O)CN3CCCC3)sc2c1 [Compound 61]	32.7	80.0	5.2	4.8	10.6	7.1	1090.0			
CC(=O)N(C)c1nc2ccc(S(=O)(=O)N(CC(C)C)C[C@@H](O)[C@H](Cc3ccccc3)NC(=O)O[C@H]3CCOC3)cc2s1 [Compound 79]	113.0	313.0	12.1	3.9	9.8	7.4	893.1			
CC(=O)N(C)c1nc2ccc(S(=O)(=O)N(CC(C)C)C[C@@H](O)[C@H](Cc3ccccc3)NC(=O)OCc3cncs3)cc2s1 [Compound 80]	17.4	26.6	5.7	3.9	17.6	8.1	457.6			
CC(=O)Nc1nc2ccc(S(=O)(=O)N(CC(C)C)C[C@@H](O)[C@H](Cc3ccccc3)NC(=O)c3cc([N+](=O)[O-])ccc3C)cc2s1 [Compound 72]	67.0	118.0	24.9	26.2	11.4	24.4	641.1			
CC(C)CN(C[C@@H](O)[C@H](Cc1ccccc1)NC(=O)O[C@H]1CO[C@H]2OCC[C@H]21)S(=O)(=O)c1ccc2nc(N3CCN(C)C3=O)sc2c1 [Compound 25]	26.0	42.5	4.7	3.5	6.0	5.6	619.8			
CC(C)CN(C[C@@H](O)[C@H](Cc1ccccc1)NC(=O)O[C@H]1CO[C@H]2OCC[C@H]21)S(=O)(=O)c1ccc2nc(N3CCN(C)CC3=O)sc2c1 [Compound 26]	29.6	34.1	20.3	6.6	9.2	10.6	345.6			
CC(C)CN(C[C@@H](O)[C@H](Cc1ccccc1)NC(=O)O[C@H]1CO[C@H]2OCC[C@H]21)S(=O)(=O)c1ccc2nc(NC(=O)CN3CCNCC3)sc2c1 [Compound 17]	0.3	0.6	0.8	0.7	0.2	0.3	1.0			
CC(=O)N(CCN1CCCC1)c1nc2ccc(S(=O)(=O)N(CC(C)C)C[C@@H](O)[C@H](Cc3ccccc3)NC(=O)COc3c(C)cccc3C)cc2s1 [Compound 78]	4.8	12.1	2.6	3.9	2.9	8.9	60.5			
Cc1cc(C#N)cc(C)c1OCC(=O)N[C@@H](Cc1ccccc1)[C@H](O)CN(CC(C)C)S(=O)(=O)c1ccc2nc(NC(=O)CN3CCCC3)sc2c1 [Compound 75]	16.3	19.0	3.6	7.4	19.4	18.7	93.6			
CC(=O)Nc1nc2ccc(S(=O)(=O)N(CC(C)C)C[C@@H](O)[C@H](Cc3ccccc3)NC(=O)COc3ccon3)cc2s1 [Compound 102]								12	132	955
